ChEMBL document CHEMBL1142432 (J Med Chem, 2008)
Converted amounts (≈) assume the structure as drawn.

Assays:
[1] = Oral bioavailability in dog at 25 mg/kg; assay type: ADME, organism-based, Canis lupus familiaris; conditions: in vivo
Rattus norvegicus [2] = assay: Toxicity in rat at 25 mg/kg for 30 days; assay type: organism-based; set-up: dose 25 mg/kg; conditions: in vivo, 720 h
Canis familiaris [3] = assay: Toxicity in dog at 25 mg/kg for 30 days; assay type: organism-based, Canis lupus familiaris; set-up: dose 25 mg/kg; conditions: in vivo, 720 h
[4] = test system: Mycobacterium tuberculosis; assay: Antimycobacterial activity against Mycobacterium tuberculosis H37Rv; assay type: functional
Rattus norvegicus [5] = assay: Toxicity in rat at 50 mg/kg, po for 30 days; assay type: organism-based; set-up: dose 50 mg/kg, route oral; conditions: in vivo, 720 h
Canis familiaris [6] = assay: Toxicity in dog at 40 mg/kg, po for 30 days; assay type: organism-based, Canis lupus familiaris; set-up: dose 40 mg/kg, route oral; conditions: in vivo, 720 h
[7] = Elimination half life in human; assay type: ADME, organism-based; conditions: in vivo
[8] = Total clearance in human; assay type: ADME, organism-based; conditions: in vivo
[9] = Renal clearance in human; assay type: ADME, organism-based, Kidney; conditions: in vivo, read-out: CL_renal
Homo sapiens = organism: Homo sapiens; assay: Nonrenal clearance in human; assay type: ADME, organism-based; conditions: in vivo
[10] = Drug level in human urine; assay type: ADME, tissue-based; conditions: read-out: Drug uptake
[11] = Drug level in human lung epithelial lining fluid at 600 mg, po bid after 4 hrs; assay type: ADME, organism-based; conditions: read-out: Drug uptake
[12] = biological target: T1, Amine oxidase [flavin-containing] A (Homo sapiens, UniProt P21397); assay: Inhibition of monoamine oxidase A
T1 sequence (P21397 whole entry): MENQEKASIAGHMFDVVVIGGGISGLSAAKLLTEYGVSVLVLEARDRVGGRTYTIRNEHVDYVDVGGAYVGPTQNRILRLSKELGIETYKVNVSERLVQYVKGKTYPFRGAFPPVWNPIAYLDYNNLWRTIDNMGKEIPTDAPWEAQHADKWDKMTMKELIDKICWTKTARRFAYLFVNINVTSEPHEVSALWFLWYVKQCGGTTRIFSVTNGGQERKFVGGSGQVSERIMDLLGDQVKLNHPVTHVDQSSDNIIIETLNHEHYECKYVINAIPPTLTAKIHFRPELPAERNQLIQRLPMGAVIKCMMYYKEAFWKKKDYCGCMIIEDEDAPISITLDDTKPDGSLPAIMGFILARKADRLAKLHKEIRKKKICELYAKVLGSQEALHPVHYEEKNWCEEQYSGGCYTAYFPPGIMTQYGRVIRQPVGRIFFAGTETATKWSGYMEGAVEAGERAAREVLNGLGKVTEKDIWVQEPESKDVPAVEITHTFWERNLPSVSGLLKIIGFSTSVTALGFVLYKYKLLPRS

Plasma = assay: Plasma concentration in human at 600 mg, po bid; assay type: ADME, organism-based; conditions: in vivo
Staphylococcus aureus = assay: Protection against methicillin-resistant Staphylococcus aureus infection in pneumonia patient; assay type: functional
Enterococcus = assay: Protection against vancomycin-resistant Enterococcus infection in pneumonia patient; assay type: functional
Rattus norvegicus [13] = assay: Toxicity in rat at 20 mg/kg for 30 days; assay type: organism-based; set-up: dose 20 mg/kg; conditions: in vivo, 720 h
Canis familiaris [14] = assay: Toxicity in dog at 20 mg/kg for 30 days; assay type: organism-based, Canis lupus familiaris; set-up: dose 20 mg/kg; conditions: in vivo, 720 h
[15] = Aqueous solubility of the compound; assay type: physicochemical

CC(=O)NC[C@H]1CN(c2ccc(N3CCN(C(=O)CO)CC3)c(F)c2)C(=O)O1 [EPEREZOLID]
bioavailability [1]: 100%
Activity (Rattus norvegicus [2]): Non-toxic
Activity (Canis familiaris [3]): Non-toxic

NNC(=O)c1ccncc1 [ISONIAZID]
MIC [4]: 0.2 µg/mL (≈ 1.46 µM)

CC(=O)NC[C@H]1CN(c2ccc(N3CCOCC3)c(F)c2)C(=O)O1 [LINEZOLID]
Activity (Rattus norvegicus [5]): Non-toxic
Activity (Canis familiaris [6]): Non-toxic
half-life [7]: 5 h
clearance [8]: 100 mL/min
CL renal [9]: 30 mL/min
CL (Homo sapiens): 70 mL/min
dose excreted [10]: 20%
concentration at 4 h [11]: 64.3 µg/mL
Ki [12]: 55 µM
Cp (Plasma): 7.3 µg/mL
Efficacy (Staphylococcus aureus): 77%
Efficacy (Enterococcus): 88%
Activity (Rattus norvegicus [13]): Non-toxic
Activity (Canis familiaris [14]): Non-toxic

CC(=O)NC[C@H]1CN(c2ccc(N3CCSCC3)c(F)c2)C(=O)O1 [SUTEZOLID]
MIC [4]: ≤ 0.125 µg/mL
solubility [15]: 200 µg/mL (≈ 566 µM)

CN[C@H](CC(C)C)C(=O)N[C@H]1C(=O)N[C@@H](CC(N)=O)C(=O)N[C@H]2C(=O)N[C@H]3C(=O)N[C@H](C(=O)N[C@H](C(=O)O)c4cc(O)cc(O)c4-c4cc3ccc4O)[C@H](O)c3ccc(c(Cl)c3)Oc3cc2cc(c3O[C@@H]2O[C@H](CO)[C@@H](O)[C@H](O)[C@H]2O[C@H]2C[C@](C)(N)[C@H](O)[C@H](C)O2)Oc2ccc(cc2Cl)[C@H]1O [VANCOMYCIN]
Activity (Staphylococcus aureus): 74%
